Data: patent US12043599B2, “Herbicidal compounds” (SYNGENTA PARTICIPATIONS AG, priority 2018, dated 2024)

Key:
Type in all cases: in vivo
Details in all cases: 250 g/h, evaluated after 13 days
Setaria faberi (SETFA) [1] = assay: Pre-emergence herbicidal glasshouse test, percentage damage
Summary of the method: (§1)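 A single spray at 250 g/h was given either to soil one day after sowing or to seedlings after eight days' growth. Vehicle was acetone/water (50:50) with 0.5% Tween 20. Thirteen days on, damage was rated in 20% bands, 1 (0-19%) to 5 (80-100%).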

Avena fatua (AVEFA) [2] = assay: as above
Summary of the method: as §1

Lolium perenne (LOLPE) [3] = assay: as above
Summary of the method: as §1

[4] = system: Echinochloa crus-galli (ECHCG); assay: as above
Summary of the method: as §1

[5] = system: Alopecurus myosuroides (ALOMY); assay: as above
Summary of the method: as §1

Avena fatua (AVEFA) [6] = assay: Post-emergence herbicidal glasshouse test, percentage damage
Summary of the method: as §1

Lolium perenne (LOLPE) [7] = assay: as above
Summary of the method: as §1

[8] = system: Echinochloa crus-galli (ECHCG); assay: as above
Summary of the method: as §1

[9] = system: Alopecurus myosuroides (ALOMY); assay: as above
Summary of the method: as §1

Setaria faberi (SETFA) [10] = assay: as above
Summary of the method: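 Wheat, barley and Setaria faberi were sprayed post-emergence after 8 days' growth (24/16 °C, 14 h light, 65% humidity) with compound in acetone/water (50:50) containing 0.5% Tween 20, at the indicated rates. On wheat, compounds were also applied with cloquintocet-mexyl at 50 g/ha. Damage was scored after 13 days on a five-point scale (5=80-100% to 1=0-19%).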

| SMILES | SETFA PRE percentage damage (five point scale) (Setaria faberi (SETFA) [1]) | AVEFA PRE percentage damage (five point scale) (Avena fatua (AVEFA) [2]) | LOLPE PRE percentage damage (five point scale) (Lolium perenne (LOLPE) [3]) | ECHCG PRE percentage damage (five point scale) [4] | ALOMY PRE percentage damage (five point scale) [5] | AVEFA POST percentage damage (five point scale) (Avena fatua (AVEFA) [6]) | LOLPE POST percentage damage (five point scale) (Lolium perenne (LOLPE) [7]) | ECHCG POST percentage damage (five point scale) [8] | ALOMY POST percentage damage (five point scale) [9] | SETFA POST percentage damage (five point scale) (Setaria faberi (SETFA) [10]) |
| --- | --- | --- | --- | --- | --- | --- | --- | --- | --- | --- |
| CC#Cc1cc(C)c(C2C(=O)CC3(CCN(C(=O)NC(=O)c4ccc(Cl)cn4)CC3)CC2=O)c(C)c1 [Compound A162] | 5 (5=80-100%) | 5 (5=80-100%) | 5 (5=80-100%) | 5 (5=80-100%) | 5 (5=80-100%) | 5 (5=80-100%) | 5 (5=80-100%) | 5 (5=80-100%) | 5 (5=80-100%) | 5 (5=80-100%) |
| CC#Cc1cc(C)c(C2C(=O)CC3(CCN(C(=O)NC(=O)c4cc(F)ccn4)CC3)CC2=O)c(C)c1 [Compound A164] | 5 (5=80-100%) | 5 (5=80-100%) | 5 (5=80-100%) | 5 (5=80-100%) | 4 (4=60-79%) | 5 (5=80-100%) | 5 (5=80-100%) | 5 (5=80-100%) | 5 (5=80-100%) | 5 (5=80-100%) |
| CC#Cc1cc(C)c(C2=C(OC(=O)OC)CC3(CCN(C(=O)c4cccnn4)CC3)CC2=O)c(C)c1 [Compound P30] | 5 (5=80-100%) | 5 (5=80-100%) | 5 (5=80-100%) | 5 (5=80-100%) | 5 (5=80-100%) | 5 (5=80-100%) | 5 (5=80-100%) | 5 (5=80-100%) | 5 (5=80-100%) | 5 (5=80-100%) |
| CC#Cc1cc(C)c(C2=C(OC(=O)OC)CC3(CCN(C(=O)NC(C)=O)CC3)CC2=O)c(C)c1 [Compound P53] | 5 (5=80-100%) | 5 (5=80-100%) | 4 (4=60-79%) | 5 (5=80-100%) | 4 (4=60-79%) | 5 (5=80-100%) | 5 (5=80-100%) | 5 (5=80-100%) | 5 (5=80-100%) | 5 (5=80-100%) |
| CC#Cc1cc(C)c(C2=C(OC(=O)OC)CC3(CCN(C(=O)C(C)(C)C#N)CC3)CC2=O)c(C)c1 [Compound P27] | 5 (5=80-100%) | 5 (5=80-100%) | 5 (5=80-100%) | 5 (5=80-100%) | 5 (5=80-100%) | 5 (5=80-100%) | 5 (5=80-100%) | 5 (5=80-100%) | 5 (5=80-100%) | 5 (5=80-100%) |
| CC#Cc1cc(C)c(C2=C(OC(=O)OC)CC3(CCN(C(=O)COCCOC)CC3)CC2=O)c(C)c1 [Compound P50] | 5 (5=80-100%) | 2 (2=20-39%) | 4 (4=60-79%) | 5 (5=80-100%) | 3 (3=40-59%) | 5 (5=80-100%) | 5 (5=80-100%) | 5 (5=80-100%) | 4 (4=60-79%) | 5 (5=80-100%) |
| CC#Cc1cc(C)c(C2C(=O)CC3(CCN(S(=O)(=O)c4ccccn4)CC3)CC2=O)c(C)c1 [Compound A70] | 5 (5=80-100%) | 5 (5=80-100%) | 5 (5=80-100%) | 5 (5=80-100%) | 5 (5=80-100%) | 5 (5=80-100%) | 5 (5=80-100%) | 5 (5=80-100%) | 5 (5=80-100%) | 5 (5=80-100%) |
| CC#Cc1cc(C)c(C2C(=O)CC3(CCN(C(=O)NC(=O)c4ccc(OC)cn4)CC3)CC2=O)c(C)c1 [Compound A176] | 5 (5=80-100%) | 2 (2=20-39%) | 5 (5=80-100%) | 5 (5=80-100%) | 3 (3=40-59%) | 2 (2=20-39%) | 5 (5=80-100%) | 5 (5=80-100%) | 5 (5=80-100%) | 5 (5=80-100%) |
| CC#Cc1cc(C)c(C2C(=O)CC3(CCN(C(=O)c4ccccn4)CC3)CC2=O)c(OC)c1 [Compound A74] | 5 (5=80-100%) | 5 (5=80-100%) | 5 (5=80-100%) | 5 (5=80-100%) | 5 (5=80-100%) | 5 (5=80-100%) | 5 (5=80-100%) | 5 (5=80-100%) | 5 (5=80-100%) | 5 (5=80-100%) |
| CC#Cc1cc(C)c(C2=C(OC(C)=O)CC3(CCN(C(=O)C4CC4)CC3)CC2=O)c(C)c1 [Compound P29] | 5 (5=80-100%) | 5 (5=80-100%) | 5 (5=80-100%) | 5 (5=80-100%) | 5 (5=80-100%) | 5 (5=80-100%) | 5 (5=80-100%) | 5 (5=80-100%) | 5 (5=80-100%) | 5 (5=80-100%) |
| CC#Cc1cc(C)c(C2C(=O)CC3(CCN(C(=O)C4CC4)CC3)CC2=O)c(OC)c1 [Compound A78] | 5 (5=80-100%) | 5 (5=80-100%) | 5 (5=80-100%) | 5 (5=80-100%) | 5 (5=80-100%) | 5 (5=80-100%) | 5 (5=80-100%) | 5 (5=80-100%) | 5 (5=80-100%) | 5 (5=80-100%) |
| CC#Cc1cc(C)c(C2C(=O)CC3(CCN(C(=O)NC(=O)c4ccccc4F)CC3)CC2=O)c(C)c1 [Compound A167] | 5 (5=80-100%) | 4 (4=60-79%) | 5 (5=80-100%) | 5 (5=80-100%) | 4 (4=60-79%) | 5 (5=80-100%) | 5 (5=80-100%) | 5 (5=80-100%) | 5 (5=80-100%) | 5 (5=80-100%) |
| CC#Cc1cc(C)c(C2C(=O)CC3(CCN([S+]([O-])C(C)(C)C)CC3)CC2=O)c(C)c1 (centres unmarked) [Compound A85] | 5 (5=80-100%) | 3 (3=40-59%) | 5 (5=80-100%) | 5 (5=80-100%) | 5 (5=80-100%) | 5 (5=80-100%) | 5 (5=80-100%) | 5 (5=80-100%) | 5 (5=80-100%) | 4 (4=60-79%) |
| CC#Cc1cc(C)c(C2C(=O)CC3(CCN(C(=O)Cc4cccnn4)CC3)CC2=O)c(C)c1 [Compound A103] | 5 (5=80-100%) | 4 (4=60-79%) | 4 (4=60-79%) | 5 (5=80-100%) | 4 (4=60-79%) | 5 (5=80-100%) | 5 (5=80-100%) | 5 (5=80-100%) | 5 (5=80-100%) | 5 (5=80-100%) |
